Experimental data as given in ChEMBL document CHEMBL5223133, “A review of MMP-2 structures and binding mode analysis of its inhibitors to strategize structure-based drug design” (Bioorg Med Chem, 2022).
pIC50: −log10 of the molar value. Active and inactive are the calls of the source. No cut-off for these calls is given here.

Assays:
[1] = system: A549; test: Anticancer activity against human A549 cells assessed as cell survival measured after 48 hrs by MTT assay; type: functional, cell-based; details: A549, 48 h
[2] = biological target: T1, 72 kDa type IV collagenase (Homo sapiens, UniProt P08253); test: Inhibition of MMP2 (unknown origin)
Target sequence in this assay (P08253 whole entry): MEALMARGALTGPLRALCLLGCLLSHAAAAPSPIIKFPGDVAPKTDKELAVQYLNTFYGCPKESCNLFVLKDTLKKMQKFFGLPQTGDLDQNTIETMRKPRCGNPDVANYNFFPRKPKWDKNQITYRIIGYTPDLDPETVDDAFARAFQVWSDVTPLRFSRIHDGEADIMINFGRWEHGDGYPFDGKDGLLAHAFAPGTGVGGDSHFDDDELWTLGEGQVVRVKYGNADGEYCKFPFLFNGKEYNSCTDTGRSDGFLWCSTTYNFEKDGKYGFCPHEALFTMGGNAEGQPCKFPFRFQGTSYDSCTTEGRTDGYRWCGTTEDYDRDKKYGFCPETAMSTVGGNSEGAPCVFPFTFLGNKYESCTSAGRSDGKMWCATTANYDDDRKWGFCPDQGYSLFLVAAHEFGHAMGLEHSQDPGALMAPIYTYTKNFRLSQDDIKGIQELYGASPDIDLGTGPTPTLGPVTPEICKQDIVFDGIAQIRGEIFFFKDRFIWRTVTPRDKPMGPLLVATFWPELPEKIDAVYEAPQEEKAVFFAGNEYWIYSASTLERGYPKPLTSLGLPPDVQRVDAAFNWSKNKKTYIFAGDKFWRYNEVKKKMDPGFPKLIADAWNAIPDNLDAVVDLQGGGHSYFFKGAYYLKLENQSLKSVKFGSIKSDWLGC

[3] = biological target: T1, 72 kDa type IV collagenase; test: Inhibition of human MMP2
Target sequence in this assay (P08253 whole entry): as above

[4] = biological target: T1, 72 kDa type IV collagenase; test: Inhibition of MMP2 (unknown origin) gelatinase activity at 5 to 20 uM incubated for 24 hrs by modified zymography assay; details: dose 5-20 µM
Target sequence in this assay (P08253 110-660 limits assumed): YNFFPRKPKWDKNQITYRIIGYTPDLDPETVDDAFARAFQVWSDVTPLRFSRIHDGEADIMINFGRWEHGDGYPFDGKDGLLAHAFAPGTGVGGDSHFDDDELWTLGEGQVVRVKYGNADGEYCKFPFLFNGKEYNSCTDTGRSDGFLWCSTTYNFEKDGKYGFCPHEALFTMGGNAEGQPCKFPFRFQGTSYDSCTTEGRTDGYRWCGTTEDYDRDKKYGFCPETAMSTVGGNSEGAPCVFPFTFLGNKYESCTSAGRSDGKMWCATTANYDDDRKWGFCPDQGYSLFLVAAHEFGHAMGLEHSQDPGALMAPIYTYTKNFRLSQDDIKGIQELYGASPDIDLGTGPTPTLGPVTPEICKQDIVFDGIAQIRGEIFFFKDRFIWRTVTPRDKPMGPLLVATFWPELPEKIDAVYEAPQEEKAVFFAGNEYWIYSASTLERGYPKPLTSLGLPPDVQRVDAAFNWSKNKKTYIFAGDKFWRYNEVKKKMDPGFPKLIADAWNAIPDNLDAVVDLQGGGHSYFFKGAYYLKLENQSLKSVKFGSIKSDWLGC

[5] = biological target: Matrix metalloproteinase-9 (Homo sapiens) (UniProt P14780); test: Inhibition of MMP9 (unknown origin) gelatinase activity at 5 to 20 uM incubated for 24 hrs by modified zymography assay; details: dose 5-20 µM
[6] = biological target: T1, 72 kDa type IV collagenase; test: Inhibition of MMP2 (unknown origin) gelatinase activity at >= 7.5 uM incubated for 24 hrs by modified zymography assay
Target sequence in this assay (P08253 110-660 limits assumed): as above

[7] = biological target: Matrix metalloproteinase-9 (Homo sapiens) (UniProt P14780); test: Inhibition of MMP9 (unknown origin) gelatinase activity at >= 7.5 uM incubated for 24 hrs by modified zymography assay

Sequence of Matrix metalloproteinase-9 (Homo sapiens) (P14780 whole entry): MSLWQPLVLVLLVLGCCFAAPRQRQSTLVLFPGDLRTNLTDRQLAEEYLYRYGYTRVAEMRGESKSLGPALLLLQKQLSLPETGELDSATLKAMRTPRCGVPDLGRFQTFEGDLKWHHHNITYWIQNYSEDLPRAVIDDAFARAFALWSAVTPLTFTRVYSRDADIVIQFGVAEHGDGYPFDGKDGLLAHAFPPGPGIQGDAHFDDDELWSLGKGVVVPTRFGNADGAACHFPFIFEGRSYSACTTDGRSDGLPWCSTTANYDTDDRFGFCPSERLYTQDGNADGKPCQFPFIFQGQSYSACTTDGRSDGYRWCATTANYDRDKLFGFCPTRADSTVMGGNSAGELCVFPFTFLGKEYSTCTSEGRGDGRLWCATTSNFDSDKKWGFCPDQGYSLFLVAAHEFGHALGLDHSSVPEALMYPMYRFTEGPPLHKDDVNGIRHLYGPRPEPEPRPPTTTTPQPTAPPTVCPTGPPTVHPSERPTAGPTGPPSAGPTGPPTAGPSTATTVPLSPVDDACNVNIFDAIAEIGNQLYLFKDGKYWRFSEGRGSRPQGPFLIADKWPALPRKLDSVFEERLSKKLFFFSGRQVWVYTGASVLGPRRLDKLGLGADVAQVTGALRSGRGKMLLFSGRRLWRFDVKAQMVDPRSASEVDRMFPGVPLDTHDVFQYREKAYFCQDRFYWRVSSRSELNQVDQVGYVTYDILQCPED

## O=C(NO)C1CN(C(=O)c2ccccc2)CCCN1C(=O)/C=C/c1ccc(O)c(O)c1 (stereo unspecified)
[1]
  pIC50: 5.09

## N#Cc1ccc(Oc2ccc(S(=O)(=O)N3CCc4c([nH]c5ccccc45)C3C(=O)NO)cc2)cc1 (stereo unspecified)
[2]
  pIC50: 6.82

## CCCCCCCC/C=C/CCCCCCCC(=O)O [ELAIDIC ACID]
[3]
  pIC50: 5.70

## c1cc2nc(c1)CNCCNCCCNCCNC2
[4]
  inhibition: Active
[5]
  inhibition: Active
[6]
  inhibition: 100%
[7]
  inhibition: 100%

## c1cc2nc(c1)CNCCNCCNCCNC2
[4]
  inhibition: Active
[5]
  inhibition: Active
[6]
  inhibition: 100%
[7]
  inhibition: 100%

## Cc1cc(=O)c(O)c(C(=O)NCc2ccc(-c3ccc(C#N)cc3)cc2)o1
[2]
  pIC50: 5.03

## CNC(=O)[C@@H](NC(=O)c1ccc(-c2ccc(OCc3ccn[nH]3)cn2)o1)C1CCCCC1
[2]
  pIC50: 7.44

## CCCCCCCC/C=C\CCCCCCCC(=O)NNC(=O)[C@H](Cc1cc2ccccc2[nH]1)NC(=O)[C@@H](CC(=O)NO)CC(C)C
[3]
  pIC50: 7.57

## O=C(NCc1ccco1)Nc1c[nH]c2cccnc2c1=O
[2]
  pIC50: 5.30

## Cc1cc(=O)c(O)c(C(=O)NCc2ccc(-c3ccccc3)cc2)o1
[2]
  pIC50: 6.21
